# Experimental data from publication PMC8241160, “Enhanced oral bioavailability and anticancer efficacy of fisetin by encapsulating as inclusion complex with HPβCD in polymeric nanoparticles” (Drug Delivery, 2017).
# How the values were obtained:
# [1] = Apparent solubility of FST and FHIC in aqueous phase; format: physicochemical; details: PBS
# Experimental: For the determination of apparent solubility, native FST and FHIC were added into 10 ml of PBS and stirred in an orbital shaker for 24 h (Madan et al., [2012]). The solutions were centrifuged (10 000 rpm for 15 min), supernatant was collected and filtered through 0.22 μm filter. After appropriate dilution, FST absorbance was measured using UV-visible spectroscopy at 360 nm. The calibration curve was prepared in the range of 1–20 μg/ml. The observed regression equation was Y = 0.054X + 0.058 with r^2=0.997.
# [2] = Encapsulation efficiency (indirect method); format: physicochemical; details: FST encapsulated in PLGA nanoparticles
# Experimental: The amount of drug loaded in the nanoparticles was determined by indirect method. Nanoparticle dispersion was centrifuged using Centrisart tubes (Sartorius, Bohemia, NY) and supernatant was analyzed for FST content using UV-visible spectrophotometry at 360 nm. The EE was calculated as follows: EE (%) = {(DT – DS)/DT} × 100, where DT=total FST added; DS=FST in the supernatant.
# [3] = In vitro drug release (dialysis bag method); format: physicochemical; details: 8 h, PBS pH 7.4 with 0.1% v/v Tween 80, 37 °C
# Experimental: Dialysis bag method was used to carry out the in vitro drug release studies. FST or FHIC-PNP dispersion equivalent to 1 mg of FST, was introduced into the dialysis bag (12 000–14 000 molecular weight cut off, Sigma Aldrich, St. Louis, MO) and placed in 100 ml of phosphate buffer saline pH 7.4 (PBS) containing 0.1%v/v Tween 80 as the release media and kept for stirring at 37 °C at 100 rpm. Samples were withdrawn at different time intervals and replaced with equal volume of media to maintain the sink condition. The collected samples were analyzed for amount of FST content by UV-visible spectrophotometry at 360 nm.
# [4] = system: MCF-7 human breast adenocarcinoma cells; assay: Cell viability assay (MTT assay); format: cell-based; details: MCF7, MCF-7, 24 h of treatment
# Experimental: The cell viability assay (MTT assay) was performed in MCF-7 human breast adenocarcinoma cells. Cells were seeded at a density of 7 × 10^3 in DMEM medium supplemented with 10% FBS in a 96-well plate and incubated for 24 h at 37 °C in a humidified 5% CO2. The cells were exposed to different concentrations of FST, FHIC and FHIC-PNP for 24 h in order to ascertain the concentration at which 50% of the cells are viable. A volume of 10 μl of MTT solution (5 mg/ml in PBS) was added to each well. The plate was incubated for 4 h and thereafter the contents in the wells were replaced with 100 μl DMSO and again incubated for 10 min. The optical density was measured using a microplate reader (BioTek Instruments, Synergy 4, Winooski, VT) at 570 nm. The cytotoxicity of blank PNP was also studied to determine the toxicity of the nanocarrier system.
# MCF-7 cells = assay: Quantitative apoptosis by flow cytometer (Annexin V-FITC/PI); format: cell-based, human; details: MCF-7, equivalent to 20 μg/ml FST, 24 h
# Experimental: For the quantitative analysis of apoptosis, cells were treated with FST, FHIC or FHIC-PNP (equivalent to 20 μg/ml FST) for 24 h. Cells were trypsinized, centrifuged at 1200 rpm for 5 min, washed three times with ice-cold PBS and were re-suspended in 500 μl of binding buffer. Thereafter, 5 μl of Annexin V-FITC and 10 μl of PI were added and mixed for 15 min in the dark. The stained cells were analyzed using a flow cytometer (FACS Calibur, BD, San Jose, CA). Data analysis was performed using Cell-Quest software (Becton Dickinson, Franklin Lakes, NJ).
# [5] = Pharmacokinetic study after oral administration; format: in vivo; details: 10 mg/kg FST equivalent, C57BL6 mice, plasma
# Experimental: The animal experiments were performed in accordance with the Committee for the Purpose of Control and Supervision of Experiments on Animals (CPCSEA) guidelines after approval from Institutional Animal Ethics Committee (IAEC) of the institution (Approval no. IICT/39/2016). Female C57BL6 mice weighing from 18 to 22 g were kept for overnight fasting before the start of the experiment and allowed free access of water ad libitum.
# C57BL6 mice were divided into two groups containing 27 animals in each. Animals in group I received pure FST (as 1% gum acacia suspension) orally at a dose of 10 mg/kg body weight and the animals in group II received FHIC-PNP (FST equivalent to 10 mg/kg) orally. At predetermined time intervals, blood samples were collected from retro-orbital plexus into centrifuge tube containing EDTA. Samples were centrifuged at 4000 rpm for 15 min and supernatant (plasma) was collected and stored at −80 °C for further analysis by LC/MS.
# Plasma samples were extracted by solvent mixture composed of chloroform and acetonitrile (1:1). The mixture was kept in shaker for 10 min and the supernatant layer was transferred into another Eppendorf tubes. Evaporation of organic solvent was done on ScanVac speed vacuum concentrator and 100 μl of acetonitrile was added and vortexed. A volume of 2 μl aliquots of sample solution were injected into LC–MS/MS for analysis. The linearity of the method was evaluated by analyzing spiked calibration samples using six calibration standards over a calibration range of 0.5–800 ng/ml in mice plasma.
# Analysis was carried out on U-HPLC instrument (Agilent Technologies, Santa Clara, CA) equipped with a quaternary pump, a degasser, a diode array detector, an auto sampler and a column compartment. Mass spectrometric analysis was carried out on an Agilent 6420 triple quadrupole (Agilent Technologies, Santa Clara, CA) equipped with electrospray ionization (ESI) source. The data acquisition was under the control of Mass Hunter software.
# FST and baicalein, an internal standard (IS), were separated on Agilent Eclipse plus C18 (2.1 mm × 50 mm, 1.8 μm) at constant temperature of 40 °C. The initial mobile phase consisted of 10 mM of ammonium formate (pH 3.5) and acetonitrile with gradient elution at a flow rate of 0.4 ml/min. Elution was in a gradient, the acetonitrile was kept constant at 2% in 0.5 min, and then increased to 98% in 1.5 min and maintained at 98% for another 2 min, then decreased to 2% in 3.8 min and maintained for 2.2 min. The total run time of the analysis was 5 min. After each injection, the sample manager was cleaned by a needle wash process with methanol–water (70/30 v/v). The typical operating source condition for MS scan in negative ion ESI mode were optimized as follow: collision energy 33 eV, cell accelerator voltage 7 eV, fragmentor 135, dwell time 200 ms, gas temperature 280 °C, gas flow 10 l/min and nebulizer 50 psi. The MRM modes of ions with m/z 284.8 → 134.8 for FST and m/z 268.8 → 166.8 for IS (baicalein) were utilized for quantitative analysis.
# [6] = set-up: method as in Bothiraja et al., 2014; details: ref Bothiraja et al., 2014; cited from earlier work
# [7] = set-up: method as in Seguin et al., 2013; details: ref Seguin et al., 2013; cited from earlier work
smiles,measurement,setting,value
"O=c1c(O)c(-c2ccc(O)c(O)c2)oc2cc(O)ccc12 [FST, 2-(3,4-dihydroxyphenyl)-3,7-dihydroxychromen-4-one]",solubility at 24 h,[1],5.25 µg/mL
same,encapsulation/entrapment efficiency (EE),[2]; listed as native FST,47%
same,encapsulation/entrapment efficiency (EE),[2]; listed as pure FST,47.3%
same,FST released in vitro,[3],about 93%
same,IC50,[4],77.8 ± 2.12 µg/mL
same,apoptosis induction,MCF-7 cells,21.8%
same,Cl,[5],2022.59 ± 0.02 mL/h
same,AUC(0-inf),"[5]; female, mouse",100 ± 2.91 ng·h/mL
same,AUC(0-t),"[5]; female, mouse",80.4 ± 3.61 ng·h/mL
same,Cmax,"[5]; female, mouse",69.3 ± 4.16 ng/mL
same,MRT,"[5]; female, mouse",3.82 ± 2.15 h
same,Tmax,"[5]; female, mouse",0.25 ± 1.2 h
same,half-life,"[5]; female, mouse",3.26 ± 0.9 h
same,aqueous solubility,[6],10.45 µg/mL
same,oral bioavailability,[7],44.1%
